According to ChEMBL document CHEMBL1151503, “Synthesis of novel ellipticine analogues and their inhibition of Moloney leukaemia reverse transcriptase” (Bioorg Med Chem Lett, 1996):

What was measured:
Set-up in all cases: scale not given: the % may be the effect or the level left
[1] = tested on: Moloney murine leukemia virus reverse transcriptase; assay: Compound was evaluated for inhibition of against moloney leukemia reverse transcriptase at concentration 0.04 mg/mL
[2] = tested on: Moloney murine leukemia virus reverse transcriptase; assay: Compound was evaluated for inhibition of against moloney leukemia reverse transcriptase at concentration 0 mg/ml
[3] = tested on: Moloney murine leukemia virus reverse transcriptase; assay: Compound was evaluated for inhibition of against moloney leukemia reverse transcriptase at concentration 0.01 mg/mL
[4] = tested on: Moloney murine leukemia virus reverse transcriptase; assay: Compound was evaluated for inhibition of against moloney leukemia reverse transcriptase at concentration 0.1 mg/mL
[5] = tested on: Moloney murine leukemia virus reverse transcriptase; assay: Compound was evaluated for inhibition of against moloney leukemia reverse transcriptase at concentration 0.02 mg/mL
[6] = tested on: Moloney murine leukemia virus reverse transcriptase; assay: Compound was evaluated for inhibition of against moloney leukemia reverse transcriptase at concentration 0.08 mg/mL

SMILES	Control [1] [%]	Control [2] [%]	Control [3] [%]	Control [4] [%]	Control [5] [%]	Control [6] [%]
Cn1c2ccccc2c2cc3ccccc3c[n+]21	3	100	48	2	30	1
Cn1c2ccc(Cl)cc2c2cc3ccccc3c[n+]21	3	100	78	2	30	1
